The assay has as its system surface of the skin. The experiment in a line: adsorption of lauryl ether sulfate on the skin (simulated washing operation, forearm, desorption, ion-pair chromatography). The conditions noted are these: significance: Yes. Type of assay: in vivo, human. The method, then: The method which we have developed for determining the adsorption of lauryl ether sulfate on the skin simulates a washing operation as occurs, for example, during daily showering: Firstly, the inner sides of the forearms are divided into a number of test areas using insulating tape. The area to be treated is then wetted with approximately 50 ml of mains water (T=38±1° C.). The lauryl ether sulfate is then applied. Throughout the application period of 45 s, the test subject distributes the lauryl ether sulfate over the area using 2 fingers in uniform circular movements. At the end of the application period, the test area is rinsed with approximately 950 ml of mains water (T=38±1° C.) and carefully patted dry using a clean cellulose cloth. For the desorption, a plastic ring with an internal diameter of 25 mm is pressed firmly onto the inner side of the test subject's forearm. 1000 μl of a 1% Triton X-100 solution are then introduced into the ring. The tip of a round Teflon-coated spatula is then used to scrape the skin uniformly for 1 min. This leads to suspension of corneocytes. To work up the samples for analysis, the samples are centrifuged and 800 μl of the supernatant are drawn off. The supernatant is analyzed with regard to its lauryl ether sulfate content using ion-pair chromatography. The effectiveness of the desorption method described is 79%, i.e. 79% of the amount of lauryl ether sulfate actually present on the skin are included.

[1] abbreviates: cosurfactant concentration 3% added to a lauryl ether sulfate solution.

Consider `CCCCCCCCCCCC(=O)O` [Lauric acid], for which the “Effect on the adsorbed amount of lauryl ether sulfate (Reduction by)” value (“Effect on the adsorbed amount … (Reduction by)” below) (cosurfactant concentration 1%, pH9, added to a lauryl ether sulfate solution) is “Reduction by 15%”.

With Disodium laureth sulfosuccinate, the “Effect on the adsorbed amount … (Reduction by)” value under setting [1] is reported as “Reduction by 28%”.

Turning to `CCCCCCCCCCO[C@@H]1O[C@H](CO)[C@@H](O)[C@H](O)[C@H]1O` [Decyl glucoside], the “Effect on the adsorbed amount … (Reduction by)” value (cosurfactant concentration 5% added to a lauryl ether sulfate solution) is recorded as “Reduction by 29%”.

For Sodium cocoamphoacetate, the “Effect on the adsorbed amount … (Reduction by)” value under setting [1] is recorded as “Reduction by 27%”.

With Cocamidopropylbetaine, under setting [1], the “Effect on the adsorbed amount … (Reduction by)” value is given as “Reduction by 31%”.

The record behind these values is patent US20020028188A1, “Method of preparing particularly skin-compatible cosmetic or dermatological cleansing preparations” (priority 1999, published 2002).
